Assay results: ChEMBL document CHEMBL3885861, “Open TG-GATES”

Species on record: Rattus norvegicus
Assay: Open TG-GATES - Regimen: Daily Repeat
Format: toxicity, organism-based, Sprague-Dawley
Parameters: regimen Daily Repeat, gender Male, age 6 weeks
Conditions: in vivo, po, 0 mg/kg, route gavage, dose level Control; for APTT / Bas / Eos / Fbg / Hb / Ht / Lym / MCH / MCHC / MCV / Mono / Neu / PT / Plat / RBC / Ret / WBC: tissue Blood; for KIDNEY_L / KIDNEY_R / KIDNEY_TOTAL: tissue Kidney; for LIVER: tissue Liver; for A/G / ALP / ALT / AST / BUN / CRE / Ca / Cl / DBIL / GLC / IP / K / LDH / Na / PL / RALB / TBIL / TC / TG / TP / gamma-GTP: tissue Plasma

## CCCc1cc(=O)[nH]c(=S)[nH]1 [PROPYLTHIOURACIL]
72 h, time 3 day
  TERMINAL_BW: 207.9 g
  APTT: 16.3 s
  Bas: 0%
  Eos: 0.8%
  Fbg: 235 mg/dL
  Hb: 13.5 g/dL
  Ht: 40.7%
  Lym: 73.4%
  MCH: 21.7 pg
  MCHC: 33.2%
  MCV: 65.5 fL
  Mono: 8.4%
  Neu: 17.4%
  PT: 12 s
  Plat: 113.1 x10_4/uL
  RBC: 622 x10_4/ul
  Ret: 7.6%
  WBC: 141.8 x10_2/uL
  KIDNEY_L: 0.9 g
  KIDNEY_R: 1 g
  KIDNEY_TOTAL: 1.9 g
  LIVER: 10.1 g
  A/G: 1.9
  ALP: 904.6 IU/L
  ALT: 38.6 IU/L
  AST: 65.4 IU/L
  BUN: 20.6 mg/dL
  CRE: 0.5 mg/dL
  Ca: 11.5 mg/dL
  Cl: 103.4 meq/L
  DBIL: 0.022 mg/dL
  GLC: 192.8 mg/dL
  IP: 8.7 mg/dL
  K: 5 meq/L
  LDH: 90.6 IU/L
  Na: 137.4 meq/L
  PL: 160.8 mg/dL
  RALB: 3.9 g/dL
  TBIL: 0.3 mg/dL
  TC: 85.6 mg/dL
  TG: 98.8 mg/dL
  TP: 6 g/dL
  gamma-GTP: 2 IU/L
[…], time 7 day
  TERMINAL_BW: 242.6 g
  APTT: 16 s
  Bas: 0%
  Eos: 0.8%
  Fbg: 232.4 mg/dL
  Hb: 13.8 g/dL
  Ht: 41%
  Lym: 77.8%
  MCH: 21.4 pg
  MCHC: 33.6%
  MCV: 63.6 fL
  Mono: 5.6%
  Neu: 15.8%
  PT: 12 s
  Plat: 105.3 x10_4/uL
  RBC: 643.8 x10_4/ul
  Ret: 6.7%
  WBC: 127.9 x10_2/uL
  KIDNEY_L: 1.1 g
  KIDNEY_R: 1.1 g
  KIDNEY_TOTAL: 2.1 g
  LIVER: 11.7 g
  A/G: 1.8
  ALP: 1082.6 IU/L
  ALT: 34.2 IU/L
  AST: 67.4 IU/L
  BUN: 20.8 mg/dL
  CRE: 0.5 mg/dL
  Ca: 11.5 mg/dL
  Cl: 106.2 meq/L
  DBIL: 0.016 mg/dL
  GLC: 180 mg/dL
  IP: 8 mg/dL
  K: 5.2 meq/L
  LDH: 95.6 IU/L
  Na: 139 meq/L
  PL: 158.4 mg/dL
  RALB: 3.9 g/dL
  TBIL: 0.4 mg/dL
  TC: 77 mg/dL
  TG: 127 mg/dL
  TP: 6.1 g/dL
  gamma-GTP: 1.8 IU/L
[…], time 14 day
  TERMINAL_BW: 275 g
  APTT: 16.2 s
  Bas: 0%
  Eos: 0.2%
  Fbg: 220.4 mg/dL
  Hb: 14.7 g/dL
  Ht: 43.9%
  Lym: 80.8%
  MCH: 21 pg
  MCHC: 33.4%
  MCV: 63 fL
  Mono: 4%
  Neu: 15%
  PT: 12.1 s
  Plat: 105.2 x10_4/uL
  RBC: 697.6 x10_4/ul
  Ret: 5%
  WBC: 125.5 x10_2/uL
  KIDNEY_L: 1.1 g
  KIDNEY_R: 1.1 g
  KIDNEY_TOTAL: 2.2 g
  LIVER: 12.2 g
  A/G: 1.8
  ALP: 719.8 IU/L
  ALT: 30 IU/L
  AST: 59.4 IU/L
  BUN: 18.8 mg/dL
  CRE: 0.7 mg/dL
  Ca: 11 mg/dL
  Cl: 107.4 meq/L
  DBIL: 0.006 mg/dL
  GLC: 183.6 mg/dL
  IP: 8.1 mg/dL
  K: 4.4 meq/L
  LDH: 87.4 IU/L
  Na: 140.8 meq/L
  PL: 150.4 mg/dL
  RALB: 3.9 g/dL
  TBIL: 0.3 mg/dL
  TC: 69.4 mg/dL
  TG: 111.2 mg/dL
  TP: 6.1 g/dL
  gamma-GTP: 0.8 IU/L
[…], time 28 day
  TERMINAL_BW: 364.4 g
  APTT: 16.6 s
  Bas: 0%
  Eos: 0.6%
  Fbg: 223.8 mg/dL
  Hb: 15.3 g/dL
  Ht: 45.9%
  Lym: 86.8%
  MCH: 19.5 pg
  MCHC: 33.4%
  MCV: 58.4 fL
  Mono: 3.8%
  Neu: 8.8%
  PT: 12.1 s
  Plat: 105.4 x10_4/uL
  RBC: 786.4 x10_4/ul
  Ret: 2.8%
  WBC: 95.2 x10_2/uL
  KIDNEY_L: 1.3 g
  KIDNEY_R: 1.3 g
  KIDNEY_TOTAL: 2.6 g
  LIVER: 15.2 g
  A/G: 1.8
  ALP: 612.6 IU/L
  ALT: 27 IU/L
  AST: 59.8 IU/L
  BUN: 20.6 mg/dL
  CRE: 0.7 mg/dL
  Ca: 10.8 mg/dL
  Cl: 106.8 meq/L
  DBIL: 0.012 mg/dL
  GLC: 169.4 mg/dL
  IP: 6.7 mg/dL
  K: 4.5 meq/L
  LDH: 84 IU/L
  Na: 139.8 meq/L
  PL: 161.6 mg/dL
  RALB: 4 g/dL
  TBIL: 0.2 mg/dL
  TC: 76.6 mg/dL
  TG: 153.8 mg/dL
  TP: 6.3 g/dL
  gamma-GTP: 1.6 IU/L
